System: STZ-induced diabetic rats
Test: Wound closure in STZ-induced diabetic rats (full-thickness dorsal excision wounds, topical application twice a day)
Type: in vivo, rat
Conditions: Example 6, Table 1
Method: Rats with a body weight of over 300 g were administered with Streptozotocin (STZ, 65 mg/kg, i.p.) to induce high blood sugar.
• i. The high-blood-sugar animals with a body weight of lower than 300 g were eliminated and the rest were randomized into 6 groups. • ii. The animals were anesthetized with pentobarbital and the hair on the surgical area (dorsal area) was removed. The surgical areas and instruments were then sterilized with 75% alcohol before operation. • iii. The skins on the dorsal medium areas (4, 6 and 8 cm from the midpoint of two scapula) were excised (full thickness) using a round cutting blade with a diameter of 1 cm. Measuring the Wounds, Applying Testing Materials, and Preventing the Wounds from Being Scratched • i. A standard ruler was placed beside the wounds and pictures were taken. • ii. A thin layer of the test materials formulated as ointments and 0.05 ml of CGS21680 solution were applied to each wound. • iii. The wounds were covered with gauze and hoods were worn on the rats' necks.
Test materials were applied to the rats twice a day (morning and evening) and the wounds were measured at each time point.
A standard ruler was placed beside the wounds when pictures were taken. The length of the wounds was standardized according to the scale of the standard ruler in the pictures before the wounds were analyzed with the image processing software Image-Pro (Media Cybernetics, Inc.) to avoid the errors caused by different picturing distances.
The areas of the three wounds on the rats' backs were analyzed by Image-Pro. The wound areas of day zero were the original wound areas. The original wound areas minus the wound areas at different time points were divided by the original wound areas to get the wound closure percentages. The mean of the three wound closure percentages of each rat represents the wound closure of each rat. Four to seven rats per group were used for each test materials. The data was shown as mean±standard error (SEM). The p-values of the test results were calculated by t-test in statistics software sigma statis (Systat software Inc.). P<0.05 means there is a significant difference, and it is marked with * on the statistics charts or tables. P<0.01 means there is a very significant difference, and it is marked with ** on the statistics charts or tables. P<0.001 means there is an extremely significant difference, and it is marked with *** on the statistics charts or tables.
The purpose of this example is to compare the efficacy of the composition of the present invention and that of the commercially available products on wound closures. The wound closure animal experiments were conducted according to Example 5. On day 0, 4, 6, 8, 10 and 12 after the treatments of placebo (Group 1), 1% S1 ointment (Group 2), CGS-21680 (Group 3), Regranex (Group 4), DCB-WH1-C (Group 5) and DCB-WH1-W (Group 6), the wound areas of all experimental groups were measured and the wound closure percentages and CT50 (time required for 50% wound closure) values were calculated.
The purpose of this example is to compare the efficacy of DCB-WH1-W with that of its active ingredients in wound closures. The test materials are placebo (Group 1), 1% S1 ointment (Group 2), 0.25% PA-W4 ointment (Group 3), DCB-WH1-W (Group 4) and 1% PA-W4 ointment (Group 5). The wound closure animal experiments were conducted according to Example 5. On day 0, 4, 9, 11 and 13 after the treatment with the test materials, the wound areas of all experimental groups were measured and the wound closure percentages and CT50 were calculated.

CCNC(=O)[C@H]1O[C@@H](n2cnc3c(N)nc(NCCc4ccc(CCC(=O)O)cc4)nc32)[C@H](O)[C@@H]1O [CGS-2168, CGS-21680]
CT50 (time required for 50% wound closure): 10.3 days | Wound closure percentage (%) Day 4 (day 4 after treatment, mean ± SEM, topical twice a day): −21.3 ± 4.8% | Wound closure percentage (%) Day 6 (day 6, mean ± SEM): −27.38 ± 3.2% | Wound closure percentage (%) Day 8 (day 8, mean ± SEM): −2.4 ± 4.1% | Wound closure percentage (%) Day 10 (day 10, mean ± SEM): 46.7 ± 6.0% | Wound closure percentage (%) DAY 12 (day 12, mean ± SEM): 71.7 ± 2.4%

Source: patent US20130309337A1, “PROCESS FOR THE PREPARATION OF PLANT EXTRACTS FOR TREATING SKIN DISORDERS AND ENHANCING HEALING OF WOUNDS” (DEVELOPMENT CENTER FOR BIOTECHNOLOGY, priority 2007, published 2013)
